In patent US8912121B2, “Herbicidal compositions comprising 4-amino-3-chloro-5-fluoro-6-(4-chloro-2-fluoro-3-methoxyphenyl)pyridine-2-carboxylic acid or a derivative thereof and certain PS II inhibitors” (Dow Agrosciences LLC, priority 2012, dated 2014):

System: ECHCG (Echinochloa crusgalli, barnyardgrass)
Test: In-water applied mixtures, transplanted paddy rice, greenhouse
Format: in vivo, Echinochloa crusgalli (L.) Beauv.
Conditions: 21 DAA
Protocol: Weed seeds or nutlets of the desired test plant species were planted in puddled soil (mud) prepared by mixing a shredded, non-sterilized mineral soil (50.5 percent silt, 25.5 percent clay, and 24 percent sand, with a pH of about 7.6 and an organic matter content of about 2.9 percent) and water at a 1:1 volumetric ratio. The prepared mud was dispensed in 365 mL aliquots into 16-ounce (oz.) non-perforated plastic pots with a surface area of 86.59 square centimeters (cm^2) leaving a headspace of 3 centimeters (cm) in each pot Mud was allowed to dry overnight prior to planting or transplanting. Rice seeds were planted in Sun Gro MetroMix® 306 planting mixture, which typically has a pH of 6.0 to 6.8 and an organic matter content of about 30 percent, in plastic plug trays. Seedlings at the second or third leaf stage of growth were transplanted into 840 mL of mud contained in 32-oz. non-perforated plastic pots with a surface area of 86.59 cm^2 4 days prior to herbicide application. The paddy was created by filling the headspace of the pots with 2.5 to 3 cm of water. When required to ensure good germination and healthy plants, a fungicide treatment and/or other chemical or physical treatment was applied. The plants were grown for 4-22 days in a greenhouse with an approximate 14 h photoperiod which was maintained at about 29° C during the day and 26° C. during the night. Nutrients were added as Osmocote® (19:6:12, N:P:K+ minor nutrients) at 2 g per 16-oz. pot and 4 g per 32-oz. pot. Water was added on a regular basis to maintain the paddy flood, and supplemental lighting was provided with overhead metal halide 1000-Watt lamps as necessary. The plants were employed for testing when they reached the first through fourth true leaf stage. […]
Treatment requirements for each compound or herbicidal component were calculated based upon the rates being tested, the concentration of active ingredient or acid equivalent in the formulation, an application volume of 2 mL per component per pot, and an application area of 86.59 cm^2 per pot.
For formulated compounds, a measured amount was placed in an individual 100 or 200 mL glass vial and was dissolved in a volume of 1.25% (v/v) Agri-Dex® crop oil concentrate to obtain application solutions. […]
The treated plants and control plants were placed in a greenhouse as described above and water was added as needed to maintain a paddy flood. After approximately 3 weeks the condition of the test plants as compared with that of the untreated plants was determined visually and scored on a scale of 0 to 100 percent where 0 corresponds to no injury or growth inhibition and 100 corresponds to complete kill. […]

## COc1c(Cl)ccc(-c2nc(C(=O)O)c(Cl)c(N)c2F)c1F [Compound A Acid, 4-amino-3-chloro-6-(4-chloro-2-fluoro-3-methoxyphenyl)-5-fluoropyridine-2-carboxylic acid]
8.75 g ae/ha
  Visual Weed Control (%) Obs: 0%
17.5 g ae/ha
  Visual Weed Control (%) Obs: 0%
